Data from patent US11066369B2, “N-(pyridin-2-yl)pyridine-sulfonamide derivatives and their use in the treatment of disease” (Novartis AG, priority 2016, dated 2021).
Where a name gives a salt, the structure may show the parent alone. Read-outs that look alike come from different tables or passages of the source.

Assays:
delF508-CFTR = target: T1, delF508-CFTR (Homo sapiens, UniProt P13569, DEL508-508); experiment: Measurement of delF508-CFTR functional activity in primary human bronchial epithelial cells (HBECs) using Multi-Transepithelial Clamp Circuit (MTECC-24) assay; type: cell-based; details: primary CF HBECs; for MTECC24 CFHBEC- Amax %: test compound added 24h before assay plus potentiator, relative to reference combination (2 μM corrector + 0.5 μM potentiator); for EC50: test compound added 24h before assay, in the presence of potentiator, mean of at least two replicates, read-out: MTECC24 CFHBEC- EC50
T1 construct: functional activity of the CFTR channel (Chloride ion transport) in patient derived primary human bronchial epithelial cells; host or cells: patient-derived primary human bronchial epithelial cells (delF508-CFTR)
T1 sequence (P13569 with tags, fused parts or gaps DEL508-508): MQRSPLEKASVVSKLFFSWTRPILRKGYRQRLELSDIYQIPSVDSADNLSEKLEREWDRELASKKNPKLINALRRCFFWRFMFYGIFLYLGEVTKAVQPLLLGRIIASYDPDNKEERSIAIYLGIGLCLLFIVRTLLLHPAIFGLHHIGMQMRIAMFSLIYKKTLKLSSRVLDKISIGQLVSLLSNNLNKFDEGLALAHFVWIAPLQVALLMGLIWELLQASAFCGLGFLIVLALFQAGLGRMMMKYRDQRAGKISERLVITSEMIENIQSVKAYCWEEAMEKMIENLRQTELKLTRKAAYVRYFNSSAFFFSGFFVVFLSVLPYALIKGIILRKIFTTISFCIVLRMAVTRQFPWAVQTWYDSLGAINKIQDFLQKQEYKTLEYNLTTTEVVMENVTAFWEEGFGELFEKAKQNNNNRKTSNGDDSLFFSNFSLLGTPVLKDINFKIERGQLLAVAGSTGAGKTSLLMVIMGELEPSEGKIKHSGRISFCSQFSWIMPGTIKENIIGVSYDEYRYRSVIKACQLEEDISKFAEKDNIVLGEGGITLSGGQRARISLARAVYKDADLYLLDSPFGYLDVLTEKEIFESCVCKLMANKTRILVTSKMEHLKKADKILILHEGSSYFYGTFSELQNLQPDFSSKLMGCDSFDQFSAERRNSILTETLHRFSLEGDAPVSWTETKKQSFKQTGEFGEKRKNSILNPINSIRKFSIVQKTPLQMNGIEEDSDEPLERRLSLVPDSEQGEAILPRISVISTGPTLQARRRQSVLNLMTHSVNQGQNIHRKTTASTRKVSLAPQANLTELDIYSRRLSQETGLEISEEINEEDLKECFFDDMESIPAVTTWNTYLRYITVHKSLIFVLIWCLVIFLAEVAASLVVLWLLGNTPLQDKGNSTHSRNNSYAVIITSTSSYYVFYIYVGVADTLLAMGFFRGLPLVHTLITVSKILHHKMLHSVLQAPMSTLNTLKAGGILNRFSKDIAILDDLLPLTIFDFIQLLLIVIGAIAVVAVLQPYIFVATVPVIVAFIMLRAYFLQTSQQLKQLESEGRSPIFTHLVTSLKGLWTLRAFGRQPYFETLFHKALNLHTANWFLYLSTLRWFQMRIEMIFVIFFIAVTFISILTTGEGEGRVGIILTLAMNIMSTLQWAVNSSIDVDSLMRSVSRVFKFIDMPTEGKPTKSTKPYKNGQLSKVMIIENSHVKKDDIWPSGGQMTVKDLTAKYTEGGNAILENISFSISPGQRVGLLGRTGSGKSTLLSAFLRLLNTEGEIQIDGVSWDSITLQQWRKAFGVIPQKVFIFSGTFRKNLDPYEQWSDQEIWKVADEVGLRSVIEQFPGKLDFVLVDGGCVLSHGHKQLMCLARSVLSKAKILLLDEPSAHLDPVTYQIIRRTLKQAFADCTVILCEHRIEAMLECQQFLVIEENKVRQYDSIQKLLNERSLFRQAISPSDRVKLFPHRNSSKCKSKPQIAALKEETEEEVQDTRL
From the text: [formula] Measurement of delF508-CFTR Functional Activity in Primary Human Bronchial Epithelial Cells (HBECs) Using Multi-Transepithelial Clamp Circuit (MTECC-24) Assay
This assay measures the functional activity of the CFTR channel (Chloride ion transport) in patient derived primary human bronchial epithelial cells with forskolin activation and in the presence of the CFTR corrector/potentiator combo.
Primary human delF508-CFTR bronchial epithelial cells were purchased from Asterand and cultured according to previously established methods (Fulcher et al. (2005) Methods Mol Med 107: 183-206). Briefly, vendor supplied cells were rapidly defrosted and added to a T175 flask in 50 mL growth media (Lonza BEBM media with Lonza BEGM singlequots). Media was replaced after 24h and then cells were fed every other day until cells were 80-90% confluent, at which point cells were cryopreserved. These P1 vials were thawed at 37° C. as needed and added to T175 flasks in 50 mL growth media at 5×10^5 cells/flask. Media was replaced after 24h, and then cells were fed every other day until 80-90% confluent. Cells were lifted with 5 mL accutase at 37° C. for 5 minutes, centrifuged at 1000 rpms for 5 min (300 g), and resuspended in differentiation media (50% BEBM in DMEM, BEGM singlequots, all trans retinoic acid (5×10^−8M)). Cells were then counted and cell suspension was added to collagen coated inserts at 3×10^4 cells/insert in 0.15 mL with 0.5 mL differentiation media on the basolateral side.
Apical and basolateral media were replaced on alternate days, and following day 7 (or when confluent plus 2 days), air liquid interface was established for approximately two weeks by removal of apical media. One day prior to use on the MTECC24 system (EP-Devices, EP Design, Belgium), 0.15 mL of warmed (37° C.) PBS was added to the apical surface of the cultures and returned to humidifier (37° C., 5% CO2 incubator) for 30 min before aspirating the apical surface to remove any mucus.
Compound treatments were then prepared. Compound dilutions, typically a 10 point concentration response with 1 in 3 dilution steps, were made in 100% DMSO before dilution 1 in 1000 into differentiation medium with a final DMSO concentration of 0.1% or 0.2% for the study. Compound containing medium was then transferred into the wells of a 24 well plate at 0.5 mL per well and warmed for 30 min in a 37° C. incubator prior to transferring washed inserts into the compound containing plates. Cells were incubated in compound containing medium (basolateral only) for 24h prior to measurement in the MTECC24 system.
Following 24 hr treatment, compound dilutions were prepared again, diluted 1 in 1000 into 37° C. assay medium (F-12 Coon's modified, 20 mM HEPES pH7.4 with TRIS Base, No FCS or bicarbonate). Cells which were treated for 24h with test compound were then transferred into plates containing 0.75 mL compound treatment in assay medium (basolateral) and 0.25 mL of the compound containing assay medium was added to the apical surface. The plates were then transferred to the heated plate compartments of the MTECC24 system for 45 min prior to measurements (this can also be done in a non-CO2 37° C. humidified incubator). Basolateral temperature should not exceed 36.5° C. and apical temperature should be approximately 35.5° C.
Modulators were added sequentially as follows while the MTECC24 instrument recorded the equivalent short circuit current (Ieq):
Prior to dilution into F-12 medium the stocks are as follows:
Amiloride stock is 10 mM in H2O
Forskolin Stock is 10 mM in 100% DMSO
(S)-3-amino-6-methoxy-N-(3,3,3-trifluoro-2-hydroxy-2-methylpropyl)-5-(trifluoromethyl)picolinamide is 0.5 mM stock in 100% DMSO
INH-172 (4-[[4-Oxo-2-thioxo-3-[3-trifluoromethyl)phenyl]-5-thiazolidinylidene]methyl]benzoic acid) stock is 30 mM in 100% DMSO
The data was normalized using the median signal from wells treated with 0.1% DMSO as a baseline. […]

[1] = target: T2, horseradish peroxidase (HRP) tagged delF508-CFTR (Homo sapiens, UniProt P13569, DEL508-508); experiment: Measurement of delF508-CFTR-HRP surface expression in CFBE41o- cells; type: cell-based; details: CFBE41o- cells; for Emax: read-out: DelF508-CFTR-HRP Amax %; for EC50: read-out: DelF508-CFTR-HRP EC50;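 as to DelF508-CFTR-HRP Amax %: percent efficacy relative to reference corrector lumacaftor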
T2 construct: expressed in transfected cells
T2 sequence (P13569 with tags, fused parts or gaps DEL508-508): as above
Outline: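 CFBE41o- bronchial epithelial cells stably expressing delF508-CFTR with HRP in the fourth extracellular loop; expression induced 48h with 500 ng/mL doxycycline, then compounds added (top 10 μM, 10-point 3-fold series, ≤0.5% DMSO) for 24h at 37° C. Surface HRP measured by luminescence with cell-impermeant substrate; EC50 from logistic fit of triplicates, plate-normalized to lowest concentration; efficacy also relative to a reference corrector.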

[2] = delF508-CFTR-HRP surface expression
[3] = mean of at least two replicates

Compound | MTECC24 CFHBEC- Amax % (delF508-CFTR) [%] | EC50 (delF508-CFTR) [µM] | Emax [1, 2] [%] | EC50 [1, 2] [µM] | EC50 [1, 3] [µM] | Emax ([1]; surface expression Amax) [%]
Cc1c(F)cccc1-c1nc(NS(=O)(=O)c2ccnc(N3CC(O)C3)c2)ccc1Cl [Example 323, N-(5-chloro-6-(3-fluoro-2-methylphenyl)pyridin-2-yl)-2-(3-hydroxyazetidin-1-yl)pyridine-4-sulfonamide] | 67.7 | 0.147 | 252 | 2.77 | – | –
Cc1ccccc1-c1nc(NS(=O)(=O)c2cccc(OC3CCC(C(=O)O)CC3)n2)ccc1C(F)(F)F (centres unmarked) [Example 342, 4-((6-(N-(6-(o-tolyl)-5-(trifluoromethyl)pyridin-2-yl)sulfamoyl)pyridin-2-yl)oxy)cyclohexanecarboxylic Acid] | 85.8 | 0.0802 | 266 | 1.9 | – | –
Nc1cccc(S(=O)(=O)Nc2ccc(Cl)c(-c3ccc(F)cc3Cl)n2)n1 [Example 56, 6-amino-N-(5-chloro-6-(2-chloro-4-fluorophenyl)pyridin-2-yl)pyridine-2-sulfonamide] | 63.9 | 0.0283 | 301 | 2.58 | – | –
Cc1ccccc1-c1nc(NS(=O)(=O)c2cccc(N3CCN(CC(F)(F)F)CC3)n2)ccc1C(F)(F)F [Example 186, N-(6-(o-tolyl)-5-(trifluoromethyl)pyridin-2-yl)-6-(4-(2,2,2-trifluoroethyl)piperazin-1-yl)pyridine-2-sulfonamide] | 81.5 | 0.0026 | – | 1.19 | – | –
CC1(C(=O)O)CCN(c2cccc(S(=O)(=O)Nc3ccc(C(F)(F)F)c(-c4cccc(F)c4Cl)n3)n2)CC1 [Example 242, 1-(6-(N-(6-(2-chloro-3-fluorophenyl)-5-(trifluoromethyl)pyridin-2-yl)sulfamoyl)pyridin-2-yl)-4-methylpiperidine-4-carboxylic Acid] | 63.2 | 0.0203 | 468 | 2.92 | – | –
Cc1ccccc1-c1nc(NS(=O)(=O)c2cccc(O[C@@H]3COCC3(C)O)n2)ccc1C(F)(F)F (mixture of isomers) [Example 293, rac-6-{[(3RR,4SR)-4-hydroxy-4-methyloxolan-3-yl]oxy}-N-[6-(2-methylphenyl)-5-(trifluoromethyl)pyridin-2-yl]pyridine-2-sulfonamide] | 78.6 | 0.022 | 590 | 1.96 | – | –
O=S(=O)(Nc1ccc(C(F)(F)F)c(-c2ccccc2C2CC2)n1)c1cccc(N2CCNCC2)n1 [Example 148, N-(6-(2-cyclopropylphenyl)-5-(trifluoromethyl)pyridin-2-yl)-6-(piperazin-1-yl)pyridine-2-sulfonamide] | 74.1 | 0.0854 | 363 | 2.46 | – | –
Cc1cccc(C)c1-c1nc(NS(=O)(=O)c2cccc(N)n2)c(F)cc1Cl [Example 95, 6-amino-N-(5-chloro-6-(2,6-dimethylphenyl)-3-fluoropyridin-2-yl)pyridine-2-sulfonamide] | – | – | 19 | 3.75 | – | –
Cc1ccccc1-c1nc(NS(=O)(=O)c2cccc(N)n2)ccc1C1CC1 [Example 66, 6-amino-N-(5-cyclopropyl-6-(o-tolyl)pyridin-2-yl)pyridine-2-sulfonamide] | – | – | 215 | 3.07 | – | –

More lines, now with the values ahead:

MTECC24 CFHBEC- Amax % (delF508-CFTR) [%] | EC50 (delF508-CFTR) [µM] | Emax [1, 2] [%] | EC50 [1, 2] [µM] | EC50 [1, 3] [µM] | Emax ([1]; surface expression Amax) [%] | Compound
96.4 | 0.01 | – | 1.59 | – | – | Cc1ccccc1-c1nc(NS(=O)(=O)c2cccc(N3CC[C@H](O)[C@H]3C)n2)ccc1C(F)(F)F [Example 314, 6-((2R,3S)-3-hydroxy-2-methylpyrrolidin-1-yl)-N-(6-(o-tolyl)-5-(trifluoromethyl)pyridin-2-yl)pyridine-2-sulfonamide]
66.7 | 0.0019 | 801 | 1.57 | – | – | CCOC(=O)C1(C)CCN(c2cccc(S(=O)(=O)Nc3ccc(C(F)(F)F)c(-c4ccccc4C)n3)n2)CC1 [Example 259, ethyl 4-methyl-1-(6-{[6-(2-methylphenyl)-5-(trifluoromethyl)pyridin-2-yl]sulfamoyl}pyridin-2-yl)piperidine-4-carboxylate]
65.5 | 0.0079 | 505 | 1.89 | – | – | Nc1cccc(S(=O)(=O)Nc2ccc(C(F)(F)F)c(-c3ccccc3C(F)(F)F)n2)n1 [Example 18, 6-amino-N-(5-(trifluoromethyl)-6-(2-(trifluoromethyl)phenyl)pyridin-2-yl)pyridine-2-sulfonamide]
57.1 | 0.207 | 515 | 2.64 | – | – | Cc1ccc(F)cc1-c1nc(NS(=O)(=O)c2cccc(N3CCN[C@@H](CO)C3)n2)ccc1C(F)(F)F [Example 174, (R)—N-(6-(5-fluoro-2-methylphenyl)-5-(trifluoromethyl)pyridin-2-yl)-6-(3-(hydroxymethyl)piperazin-1-yl)pyridine-2-sulfonamide Hydrochloride]
59.5 | 0.0318 | – | – | – | – | Cc1ccccc1-c1nc(NS(=O)(=O)c2cccc(N3CC[C@@H](N)[C@@H](F)C3)n2)ccc1C(F)(F)F [Example 111, 6-((3S,4R)-4-amino-3-fluoropiperidin-1-yl)-N-(6-(o-tolyl)-5-(trifluoromethyl)pyridin-2-yl)pyridine-2-sulfonamide Hydrochloride]
– | – | – | – | 2.68 | 847 | Cc1ccc(Cl)cc1-c1nc(NS(=O)(=O)c2cccc(N3CCC(C)(C(=O)O)CC3)n2)ccc1C(F)(F)F [Example 451, 1-(6-(N-(6-(5-chloro-2-methylphenyl)-5-(trifluoromethyl)pyridin-2-yl)sulfamoyl)pyridin-2-yl)-4-methylpiperidine-4-carboxylic Acid]
– | – | – | – | 2.95 | 410 | Cc1ccccc1-c1nc(NS(=O)(=O)c2cccc(N[C@@H]3CCC[C@@H](C(=O)O)C3)n2)ccc1C(F)(F)F (relative stereo) [Example 463, (1,3-trans)-3-((6-(N-(6-(o-tolyl)-5-(trifluoromethyl)pyridin-2-yl)sulfamoyl)pyridin-2-yl)amino)cyclohexanecarboxylic Acid]
– | – | 196 | 3.55 | – | – | Cc1cc(F)ccc1-c1nc(NS(=O)(=O)c2ccc(N)nc2)ccc1Cl [Example 71, 6-amino-N-(5-chloro-6-(4-fluoro-2-methylphenyl)pyridin-2-yl)pyridine-3-sulfonamide]
– | – | 501 | 1.3 | – | – | Nc1cccc(S(=O)(=O)Nc2ccc(Cl)c(-c3ccccc3C3CC3)n2)n1 [Example 19, 6-amino-N-(5-chloro-6-(2-cyclopropylphenyl)pyridin-2-yl)pyridine-2-sulfonamide]
